{"source": "paper PMC12005472", "about": "(Chemmedchem, 2025)", "key": {"[1]": {"target": "Asp25 (UniProt position 93, KEALLDTGADD)", "details": "cited from earlier work"}, "[2]": {"test_system": "HIV-1 protease (HIV-1 PR)", "set-up": "method as in PMID 1883831", "details": "experiment; cited from earlier work"}, "[3]": {"test_system": "Endothiapepsin (EP)", "excerpt": "The total proton exchange ( ΔnH^+ ) in a binding event can be determined by ITC measurements in different buffers with distinct heats of ionization ( ΔHionization ), according to the Eq. 1: (1) ΔHobserved=ΔHcorrected+ΔnH^+(ΔHionization)\nIntegrating the raw thermograms yields the experimentally observed enthalpies ( ΔHobserved ), which can be used for a linear regression with the slope corresponding to ΔnH^+ and the y‐axis intercept corresponding to the buffer‐corrected enthalpy of the binding reaction ( ΔHcorrected ).\nFigure 3 Left: Calculation of the heat of ionization. The experimentally observed enthalpies ΔHobs are plotted against the heat of ionization ΔHion of the respective buffers (phosphate: 3.60 kJ mol^−1 ADA: 12.23 kJ mol^−1, HEPES: 20.04 kJ mol^−1, TRIS: 47.45 kJ mol^−1).[14] […] Right: Thermodynamic profiles of complex formation in phosphate, ADA, HEPES and TRIS buffers and the buffer‐corrected thermodynamic profile. For the buffer‐corrected profile, the change in Gibbs free energy ΔG is calculated as the average of ΔG observed in the four buffers, ΔH is obtained as described above, and the entropic contribution − TΔS is calculated from the numerical difference between ΔG and ΔH .\nCacodylate was excluded as a buffering agent due to its toxicity. […] 2.5 % (v/v) DMSO corresponds to a molar concentration of 0.35 M.\nEach parameter alone can have a clear effect on the thermodynamic properties.[11] We used the MicroCal PEAQ‐ITC Automated ITC with a cell volume of 200 μL; 25 °C is a standard temperature, where most of the experiments are carried out, not only ITC. We followed standard protocols for protein, ligand, and buffer concentrations.[16]\nThe dialysis was performed in a 600 mL beaker. The membrane of the cassette was soaked in the dialysis buffer for 2 min by holding it (with gloves) in the beaker filled with dialysis buffer at pH 7.0 (TRIS, ADA, HEPES and phosphate, respectively). After pre‐soaking, the cassette was carefully dried with a paper towel to prevent buffer from entering the cassette, but without touching the membranes. 3 mL of at least 4 mg mL^−1 protein solution was added to the cassette using a 200 μL micropipette. When the cassette was closed with the stopper, any remaining air was gently evacuated from the dialysis chamber. The protein was then dialyzed against 500 mL of dialysis buffer for 2 hours at RT with slow stirring. The buffer was then replaced with 500 mL of fresh buffer and stirred again for 2 hours at RT. After another change of buffer, the dialysate was stored in the refrigerator overnight (12–20 hours). The next day, the protein solution was removed using a syringe with a long cannula. The protein was stored on ice before being shock frozen in liquid nitrogen to determine the concentration using NanoDrop™ 2000c (Thermo Scientific, USA).\nITC measurements were performed using the MicroCal PEAQ‐ITC Automated ITC (Malvern Panalytical, Worcestershire, UK). […] For the reference titration, the same titrant was titrated into the buffer solution. The obtained thermogram peaks of all titrations were integrated and fitted with MicroCal PEAQ‐ITC Analysis Software 1.41."}, "[4]": {"test_system": "Endothiapepsin (EP)", "details": "ITC; 80 μM EP, 1200 μM pepA, 20 mM buffer (ACES, Cacodylate, HEPES, Phosphate, TRIS), 16 °C, pH 7.0; ref 12 (Gómez and Freire); cited from earlier work"}, "[5]": {"test_system": "Endothiapepsin (EP)", "details": "in words; ref not given; cited from earlier work"}}, "note": "Where two headings read alike, the source gives them in different places."}
{"substance": "HIV-1 protease (Human immunodeficiency virus 1)", "values": [{"measurement": "pKa", "setting": "[1]", "value": 3.1}, {"measurement": "pKa", "setting": "[1]; record 2", "value": 5.2}]}
{"substance": "HIV‐1 PR: HIV-1 protease, an aspartic protease, used to calibrate the Poisson-Boltzmann methodology", "values": [{"measurement": "pKa of Asp25", "setting": "[2]", "value": 3.1}, {"measurement": "pKa of Asp25’", "setting": "[2]", "value": 5.2}]}
{"substance": "Iva‐Val‐Val‐Sta‐Ala‐Sta [pepA]", "values": [{"measurement": "proton uptake upon pepA binding to EP, in words", "setting": "[3]", "value": "uptake of more than one mole of protons"}, {"measurement": "total proton exchange ΔnH^+ (proton uptake per binding reaction)", "setting": "[3]; ITC, slope of ΔHobs vs ΔHionization in phosphate, ADA, HEPES, TRIS, pH 7.0, 25 °C, 50 μM EP, 500 μM pepA, 100 mM buffer, 2.5 % DMSO, 0.1 % Tween20, on average", "value": "1.67±0.12 protons per binding reaction"}, {"measurement": "enthalpic contribution (ΔHobserved) in TRIS", "setting": "[3]; TRIS buffer 100 mM, pH 7.0, 25 °C, 2.5 % DMSO, 0.1 % Tween20", "value": "7.34 ± 0.693", "unit": "kcal/mol"}, {"measurement": "overall proton uptake", "setting": "[3]; pH 7", "value": "1.67±0.12 moles of protons"}, {"measurement": "total proton exchange ΔnH^+ (proton uptake)", "setting": "[3]; pH 7", "value": "1.67 ± 0.12", "unit": "mol"}, {"measurement": "buffer-corrected enthalpy of the binding reaction ΔHcorrected", "setting": "[3]; y-axis intercept of ΔHobs vs ΔHion in phosphate, ADA, HEPES, TRIS, pH 7.0, 25 °C", "value": -12.7, "unit": "kcal/mol"}, {"measurement": "proton exchange ΔnH^+ previously published", "setting": "[4]", "value": "1.1±0.1", "unit": "protons"}, {"measurement": "pH dependence of affinity", "setting": "[5]", "value": "becomes higher at more acidic pH"}]}
